{"source": "patent US20040235717A1", "about": "“Suppression of androgen receptor transactivation through new pathways to ar and ar coactivators and repressors” (priority 2001, published 2004)", "key": {"[1]": {"system": "estrogen receptor (ER) transactivation", "experiment": "ER transactivation, ERE-luc in PC-3 cells transfected with ERα", "assay_type": "cell-based, human", "conditions": "10 nM E2", "method": "26. […] The cells were harvested and assayed for luciferase activity using MMTV-luc as a reporter. […] The cells were harvested for Northern blot analysis. […] The cells were harvested and assayed for the luciferase activity. […] (E) The PC-3 cells were transfected with ERα along with plasmids, as indicated, using ERE-luc as a reporter for 16 h, followed by 10 nM E2 treatment for another 16 h. The cells were harvested for luciferase assay. Data are means±s.d. from three independent experiments.\n312. […] The cells were lysed and the luciferase activity was detected by the dual luciferase assay according to standard procedures."}, "p21 expression": {"system": "p21 expression", "experiment": "p21 promoter activity (luciferase) and p21 protein expression", "assay_type": "cell-based", "method": "18. […] (A) Akt suppressed androgen/AR-induced p21 promoter activity. […] (B) Androgen/AR-induced PC-3(AR)6 apoptosis and p21 protein expression was blocked by Akt PC-3(AR)6 was transfected with pCDNA3, cAkt, or dAkt, as indicated, for 16 h. […] (C) AR-induced p21 protein expression was enhanced by dAkt in LNCaP cells. […] LNCaP stable transfection with dAkt was confirmed by western blot assay using phospho-Akt (Ser473) antibody. […] TPA was then added for another 24 h and cell apoptosis was determined by TUNEL assay. […] IGF-1 was added for another 30 min, followed by 10 nM TPA treatment for another 24 h. The apoptosis was determined by TUNEL assay. The data are means±s.d. from three independent experiments."}, "[2]": {"biological_target": "T1, interaction between AR and ARA70 (Homo sapiens, UniProt P10275)", "T1 construct": "VP16 fused to the AR aa 36-918 (VP16-AR); expressed in transfected cells; host or cells: DU145", "T1 sequence (P10275 36-920)": "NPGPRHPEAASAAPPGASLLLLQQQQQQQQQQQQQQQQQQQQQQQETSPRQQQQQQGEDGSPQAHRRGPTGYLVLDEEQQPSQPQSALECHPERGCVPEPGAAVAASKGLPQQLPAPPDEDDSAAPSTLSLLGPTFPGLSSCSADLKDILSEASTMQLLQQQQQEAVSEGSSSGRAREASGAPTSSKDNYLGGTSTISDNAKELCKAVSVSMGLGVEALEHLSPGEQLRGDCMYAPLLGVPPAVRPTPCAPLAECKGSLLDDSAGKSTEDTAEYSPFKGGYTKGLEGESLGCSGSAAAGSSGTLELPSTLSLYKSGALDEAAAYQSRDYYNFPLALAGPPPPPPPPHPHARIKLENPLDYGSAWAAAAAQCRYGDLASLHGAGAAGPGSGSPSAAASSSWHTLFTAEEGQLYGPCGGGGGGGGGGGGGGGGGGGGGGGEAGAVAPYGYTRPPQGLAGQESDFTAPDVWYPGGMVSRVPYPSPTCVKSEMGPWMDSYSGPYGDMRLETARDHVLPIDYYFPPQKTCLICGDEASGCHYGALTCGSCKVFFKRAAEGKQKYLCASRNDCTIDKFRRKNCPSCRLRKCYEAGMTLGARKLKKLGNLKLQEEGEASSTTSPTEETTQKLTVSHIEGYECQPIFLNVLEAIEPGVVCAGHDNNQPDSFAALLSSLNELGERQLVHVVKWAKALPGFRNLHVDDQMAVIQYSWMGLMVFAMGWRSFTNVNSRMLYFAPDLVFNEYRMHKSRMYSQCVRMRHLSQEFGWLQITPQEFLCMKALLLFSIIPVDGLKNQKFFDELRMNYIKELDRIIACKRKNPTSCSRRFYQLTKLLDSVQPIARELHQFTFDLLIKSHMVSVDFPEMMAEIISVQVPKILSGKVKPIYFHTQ", "experiment": "Mammalian two-hybrid assay GAL4-ARA70 / VP16-AR in DU145 cells (pG5CAT)", "assay_type": "cell-based", "conditions": "1 nM DHT", "source_text": "257. […] Onate, S. A. et al., Science 270, 1354-1357 (1995); Voegel, J. J. et al., EMBO J. 15, 3667-3675 (1996); Yeh, S. et al., Proc. Natl. Acad. Sci. USA 93, 5517-5521(1996); Yeh, S. et al., Proc. Natl. Acad. Sci. USA 95, 5527-5532 (1998); Fujimoto, N. et al., J. BioI. Chem. 274, 8316-8321 (1999); Miyamoto, H. et al., Proc. Natl. Acad. Sci. USA 95 11083-11088 (1998); Kang, H. Y. et al., J. BioI. Chem. 274, 8570-8576 (1999); Yeh, S. et al., Biochem. Biophys. Res. Commun. 248, 361-367 (1998). […] Yeh, S. et al., Proc. Natl. Acad. Sci. USA 93, 5517-5521(1996); Yeh, S. et al., Proc. Natl. Acad. Sci. USA 95, 5527-5532 (1998). […] The interaction between AR and ARA70 was determined by CAT assay using pG5CAT as reporter. […] In contrast, the addition of […] between the AR and ARA70 (FIG. 4a, lane 2 vs 5 and lane 6 vs 8). Similar repression effects also occurred when we replaced ARA70 with other AR coactivators, such as ARA54 or TIF2. Kang, H. Y. et al., J. BioI. Chem. 274, 8570-8576 (1999); Voegel, J. J. et al., EMBO J. 15, 3667-3675 (1996). cAkt and dAkt, however, had very little effect on the interaction between GAL4 fused AR-LBD653-918 and VP16-ARA 70 (VP16 fused ARA70), VP16-ARA54, or VP16-TIF2.\nGAL4DBD fused to ARA70 aa 176-401 (GAL4-ARA70), and VP16 fused to the AR aa 36-918 (VP16-AR) were transfected into DU145 cells in the presence or absence of cAkt, dAkt, and LY294002."}}, "note": "Entries after “also recorded” stand apart in the source; their conditions may differ."}
{"substance": "dAkt: dominant-negative Akt, a kinase deficient mutant, K179A", "values": [{"measurement": "Effect on ER transactivation", "setting": "[1]", "result": "suppressed ER transactivation"}, {"measurement": "p21 expression in response to androgen", "setting": "p21 expression; LNCaP stably transfected with dAkt, 10 nM DHT 2 days, 2.5 fold without dAkt", "result": 14.5, "unit": "fold"}, {"measurement": "Effect on androgen/AR-induced p21 expression", "setting": "p21 expression; PC-3 cells, transfected", "result": "enhanced p21 expression in a dose-dependent manner"}, {"measurement": "Interaction between AR and ARA70 (CAT activity)", "setting": "[2]", "result": "further enhanced the interaction of AR and ARA70; also recorded: further enhanced the interaction between the AR and ARA70"}]}
